In patent publication US11090319B2, “Therapeutic uses of pharmaceutical compositions comprising cyclic boronic acid ester derivatives” (Melinta Subsidiary Corp., priority 2010, dated 2021):
Read-outs that look alike come from different tables or passages of the source.

Assays:
[1] = test system: AB1052 Acinetobacter baumannii OXA-24; experiment: Ceftazidime MIC with fixed concentration of BLI; type: cell-based; settings: AB1052 OXA-24; for Ceftazidime MIC with cyclic boronic acid ester derivative: derivative at 10 μg/mL
Experimental: (§1) Next, ceftazidime potentiation activity of several cyclic boronic acid ester derivatives was tested using a larger panel of strains expressing β-lactamase hydrolyzing enzymes. Ceftazidime MICs were determined alone and in the presence of fixed concentrations of various cyclic boronic acid ester derivatives.

[2] = test system: CF1001 Citrobacter freundii Hyper AmpC expression; experiment: Ceftazidime MIC with fixed concentration of BLI; type: cell-based; settings: for Ceftazidime MIC with cyclic boronic acid ester derivative: derivative at 10 μg/mL
Experimental: as §1

[3] = test system: EC1008 Escherichia coli CTX-M3; experiment: Ceftazidime MIC with fixed concentration of BLI; type: cell-based; settings: for Ceftazidime MIC with cyclic boronic acid ester derivative: derivative at 10 μg/mL
Experimental: as §1

[4] = test system: EC1016 Escherichia coli FOX-5; experiment: Ceftazidime MIC with fixed concentration of BLI; type: cell-based; settings: EC1016 FOX-5; for Ceftazidime MIC with cyclic boronic acid ester derivative: derivative at 10 μg/mL
Experimental: as §1

[5] = test system: ECL1003 Enterobacter cloacae Hyper AmpC expression; experiment: Ceftazidime MIC with fixed concentration of BLI; type: cell-based; settings: for Ceftazidime MIC with cyclic boronic acid ester derivative: derivative at 10 μg/mL
Experimental: as §1

[6] = test system: KP1006 Klebsiella pneumoniae CTX-M2; experiment: Ceftazidime MIC with fixed concentration of BLI; type: cell-based; settings: for Ceftazidime MIC with cyclic boronic acid ester derivative: derivative at 10 μg/mL
Experimental: as §1

[7] = test system: KP1012 Klebsiella pneumoniae SHV-18; experiment: Ceftazidime MIC with fixed concentration of BLI; type: cell-based; settings: KP1012 SHV-18; for Ceftazidime MIC with cyclic boronic acid ester derivative: derivative at 10 μg/mL
Experimental: as §1

[8] = test system: KP1013 Klebsiella pneumoniae CMY-2; experiment: Ceftazidime MIC with fixed concentration of BLI; type: cell-based; settings: KP1013 CMY-2; for Ceftazidime MIC with cyclic boronic acid ester derivative: derivative at 10 μg/mL
Experimental: as §1

[9] = test system: KP1014 Klebsiella pneumoniae Vim-1; experiment: Ceftazidime MIC with fixed concentration of BLI; type: cell-based; settings: KP1014 Vim-1; for Ceftazidime MIC with cyclic boronic acid ester derivative: derivative at 10 μg/mL
Experimental: as §1

[10] = test system: SA1000 Salmonella CMY-2; experiment: Ceftazidime MIC with fixed concentration of BLI; type: cell-based; settings: SA1000 CMY-2; for Ceftazidime MIC with cyclic boronic acid ester derivative: derivative at 10 μg/mL
Experimental: as §1

[11] = molecular target: various β-lactamases (bacterial lysates) (Escherichia coli, UniProt A0A5R8T042); experiment: biochemical; type: biochemical; settings: read-out: AZT IC50 KP1009 CTX-M-15
[12] = molecular target: various β-lactamases (bacterial lysates) (Escherichia coli, UniProt A0A649V088); experiment: biochemical; type: biochemical; settings: read-out: AZT IC50 KP1005 CTX-M-14
[13] = molecular target: various β-lactamases (bacterial lysates) (Klebsiella pneumoniae, UniProt Q9F663); experiment: biochemical; type: biochemical; settings: aztreonam cleavage
[14] = molecular target: various β-lactamases (bacterial lysates) (Klebsiella pneumoniae, UniProt Q9F663, H272Y); experiment: biochemical; type: biochemical
[15] = molecular target: various β-lactamases (bacterial lysates) (Pseudomonas aeruginosa, UniProt P14489); experiment: biochemical; type: biochemical; settings: AZT IC50 KP1007 OXA-10
[16] = molecular target: various β-lactamases (bacterial lysates) (Salmonella typhimurium, UniProt P0A1V8); experiment: biochemical; type: biochemical; settings: AZT IC50 KPX1001 OXA-2
[17] = molecular target: various β-lactamases (bacterial lysates) (Escherichia coli, UniProt Q53TY8); experiment: Inhibition of nitrocefin cleavage by bacterial lysates, Table 11; type: biochemical; settings: lysate EC1010 pAmpC (CMY-6), read-out: NCF IC50 EC1010 pAmpC (CMY-6)
[18] = test system: ECL1004 Enterobacter cloacae NMC-A; experiment: Checkerboard assay, biapenem potentiation; settings: Biapenem MIC 8-fold; ECL1004 NMC-A class A
[19] = test system: AB1052 Acinetobacter baumannii OXA-24; experiment: Checkerboard assay, biapenem potentiation; settings: Biapenem MIC 8-fold; AB1052 OXA-24 class D
[20] = molecular target: SME-2, lysate of SM1000 (Serratia marcescens, UniProt P52682); experiment: Inhibition of biapenem hydrolysis by bacterial lysate; settings: read-out: IC50 of inhibition of biapenem hydrolysis; SM1000 SME-2
[21] = molecular target: CTX-M-14, lysate of KP1005 (Escherichia coli, UniProt Q9L5C7); experiment: Inhibition of ceftazidime hydrolysis by bacterial lysate
[22] = molecular target: CTX-M-15, lysate of KP1009 (Escherichia coli, UniProt Q9EXV5); experiment: as above
[23] = molecular target: KPC-2, lysate of KP1004 (Klebsiella pneumoniae, UniProt Q9F663); experiment: as above
[24] = molecular target: KPC-2, lysate of KP1008 (Klebsiella pneumoniae, UniProt Q9F663); experiment: as above
[25] = molecular target: SHV-12, lysate of KP1010 (Klebsiella pneumoniae, UniProt P0AD64, E235K/G234S/L31Q); experiment: as above
[26] = molecular target: SHV-18, lysate of KP1012 (Klebsiella pneumoniae, UniProt P0AD64, E235K/G234A/R39S); experiment: as above
[27] = molecular target: DHA-1, lysate of EC1014 (Escherichia coli, UniProt Q84AE0); experiment: as above; settings: read-out: IC50 of inhibition of Ceftazidime hydrolysis; EC1014 DHA-1
[28] = molecular target: OXA-2, lysate of KX1000 (Salmonella typhimurium, UniProt P0A1V8); experiment: as above
[29] = lysate KP1004 KPC-2, read-out: AZT IC50 KP1004 KPC-2 (converted)
[30] = lysate KP1008 KPC-2, read-out: AZT IC50 KP1008 KPC-2
[31] = Escherichia coli, read-out: Ceftazidime MIC Alone
[32] = Klebsiella pneumoniae, read-out: Ceftazidime MIC Alone

various β-lactamases (bacterial lysates) (Escherichia coli, UniProt A0A649V088), sequence (A0A649V088 29-291): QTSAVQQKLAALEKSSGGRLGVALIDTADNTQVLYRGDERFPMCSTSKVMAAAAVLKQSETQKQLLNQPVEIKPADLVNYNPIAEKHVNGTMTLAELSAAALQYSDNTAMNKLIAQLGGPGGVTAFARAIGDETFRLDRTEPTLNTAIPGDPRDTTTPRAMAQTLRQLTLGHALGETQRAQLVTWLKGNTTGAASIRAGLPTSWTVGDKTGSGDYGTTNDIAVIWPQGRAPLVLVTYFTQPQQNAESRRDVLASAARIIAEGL
CTX-M-14, lysate of KP1005, sequence (Q9L5C7 entry or part of it): as the sequence (A0A649V088 29-291) above
various β-lactamases (bacterial lysates) (Pseudomonas aeruginosa, UniProt P14489), sequence (P14489 20-266): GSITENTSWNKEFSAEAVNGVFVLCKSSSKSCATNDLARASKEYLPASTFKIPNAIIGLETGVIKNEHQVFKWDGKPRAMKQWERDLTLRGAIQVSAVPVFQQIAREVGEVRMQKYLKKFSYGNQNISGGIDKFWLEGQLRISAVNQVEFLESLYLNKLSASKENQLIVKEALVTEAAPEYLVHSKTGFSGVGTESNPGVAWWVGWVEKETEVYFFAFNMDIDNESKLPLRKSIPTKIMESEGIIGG
various β-lactamases (bacterial lysates) (Klebsiella pneumoniae, UniProt Q9F663), sequence (Q9F663 whole entry, looked up): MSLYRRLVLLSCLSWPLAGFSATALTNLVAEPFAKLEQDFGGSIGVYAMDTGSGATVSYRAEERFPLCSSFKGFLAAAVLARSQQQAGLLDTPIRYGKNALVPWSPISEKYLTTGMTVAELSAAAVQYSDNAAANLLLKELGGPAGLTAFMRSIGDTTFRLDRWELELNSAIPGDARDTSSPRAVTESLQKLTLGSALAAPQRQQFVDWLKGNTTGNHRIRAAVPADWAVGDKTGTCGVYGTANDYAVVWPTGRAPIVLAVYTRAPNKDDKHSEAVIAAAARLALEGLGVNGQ
SHV-18, lysate of KP1012, sequence (P0AD64 22-286 R39S/G234A/E235K): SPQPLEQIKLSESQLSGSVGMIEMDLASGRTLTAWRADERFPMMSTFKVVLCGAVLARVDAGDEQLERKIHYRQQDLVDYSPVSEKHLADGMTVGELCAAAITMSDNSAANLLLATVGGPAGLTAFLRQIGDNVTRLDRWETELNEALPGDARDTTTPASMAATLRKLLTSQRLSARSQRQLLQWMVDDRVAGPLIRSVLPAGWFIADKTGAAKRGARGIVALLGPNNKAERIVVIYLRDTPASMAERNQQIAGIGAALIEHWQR
various β-lactamases (bacterial lysates) (Escherichia coli, UniProt A0A5R8T042), sequence (A0A5R8T042 29-291): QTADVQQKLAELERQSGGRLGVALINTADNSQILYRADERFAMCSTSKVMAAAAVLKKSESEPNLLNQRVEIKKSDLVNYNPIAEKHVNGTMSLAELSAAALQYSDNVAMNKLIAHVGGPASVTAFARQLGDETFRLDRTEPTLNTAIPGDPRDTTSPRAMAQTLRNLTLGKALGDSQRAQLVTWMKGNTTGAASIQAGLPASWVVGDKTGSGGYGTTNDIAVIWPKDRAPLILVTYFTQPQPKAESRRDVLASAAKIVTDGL
CTX-M-15, lysate of KP1009, sequence (Q9EXV5 entry or part of it): as the sequence (A0A5R8T042 29-291) above
SHV-12, lysate of KP1010, sequence (P0AD64 22-286 L31Q/G234S/E235K): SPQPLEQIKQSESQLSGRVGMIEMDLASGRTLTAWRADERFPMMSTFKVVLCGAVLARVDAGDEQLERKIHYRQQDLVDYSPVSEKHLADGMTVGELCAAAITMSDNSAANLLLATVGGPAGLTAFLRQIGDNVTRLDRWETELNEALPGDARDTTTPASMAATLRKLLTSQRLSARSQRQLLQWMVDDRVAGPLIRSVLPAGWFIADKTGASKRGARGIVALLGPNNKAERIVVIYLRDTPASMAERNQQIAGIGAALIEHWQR
various β-lactamases (bacterial lysates) (Klebsiella pneumoniae, UniProt Q9F663, H272Y), sequence (Q9F663 whole entry H272Y, looked up): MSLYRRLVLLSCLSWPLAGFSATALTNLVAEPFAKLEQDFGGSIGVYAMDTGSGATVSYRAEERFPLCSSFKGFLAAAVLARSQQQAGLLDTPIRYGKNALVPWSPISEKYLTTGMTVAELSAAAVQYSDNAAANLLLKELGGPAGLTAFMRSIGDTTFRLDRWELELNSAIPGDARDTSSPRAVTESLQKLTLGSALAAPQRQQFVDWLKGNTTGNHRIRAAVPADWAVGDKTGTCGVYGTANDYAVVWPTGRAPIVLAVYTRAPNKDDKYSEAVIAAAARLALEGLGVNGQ
OXA-2, lysate of KX1000, sequence (P0A1V8 22-275): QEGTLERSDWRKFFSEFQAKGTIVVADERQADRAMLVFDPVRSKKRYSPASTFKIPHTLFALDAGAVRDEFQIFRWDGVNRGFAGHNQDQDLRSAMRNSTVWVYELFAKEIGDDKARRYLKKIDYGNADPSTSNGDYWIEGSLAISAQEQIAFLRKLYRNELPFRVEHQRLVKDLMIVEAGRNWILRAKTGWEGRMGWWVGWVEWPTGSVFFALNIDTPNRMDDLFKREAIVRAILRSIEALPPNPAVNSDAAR
various β-lactamases (bacterial lysates) (Salmonella typhimurium, UniProt P0A1V8), sequence (P0A1V8 22-275): as above
KPC-2, lysate of KP1004, sequence (Q9F663 25-293 limits assumed): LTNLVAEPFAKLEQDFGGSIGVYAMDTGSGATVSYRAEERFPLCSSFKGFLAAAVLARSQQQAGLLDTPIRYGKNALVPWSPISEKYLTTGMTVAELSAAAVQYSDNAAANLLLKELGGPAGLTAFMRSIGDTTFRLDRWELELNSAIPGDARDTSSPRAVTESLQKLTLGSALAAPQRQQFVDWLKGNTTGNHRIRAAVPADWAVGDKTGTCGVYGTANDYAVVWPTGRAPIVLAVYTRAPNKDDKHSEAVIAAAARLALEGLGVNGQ
KPC-2, lysate of KP1008, sequence (Q9F663 25-293 limits assumed): as above
SME-2, lysate of SM1000, sequence (P52682 28-294 limits assumed): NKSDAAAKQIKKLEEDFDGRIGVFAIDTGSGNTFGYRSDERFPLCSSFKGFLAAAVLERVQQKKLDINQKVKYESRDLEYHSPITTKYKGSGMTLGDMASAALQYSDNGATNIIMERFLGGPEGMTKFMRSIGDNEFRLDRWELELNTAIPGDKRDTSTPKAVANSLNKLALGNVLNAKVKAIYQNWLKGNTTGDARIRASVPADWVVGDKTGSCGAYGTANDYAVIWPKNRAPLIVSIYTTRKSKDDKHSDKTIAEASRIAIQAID
various β-lactamases (bacterial lysates) (Escherichia coli, UniProt Q53TY8), sequence (Q53TY8 entry or part of it): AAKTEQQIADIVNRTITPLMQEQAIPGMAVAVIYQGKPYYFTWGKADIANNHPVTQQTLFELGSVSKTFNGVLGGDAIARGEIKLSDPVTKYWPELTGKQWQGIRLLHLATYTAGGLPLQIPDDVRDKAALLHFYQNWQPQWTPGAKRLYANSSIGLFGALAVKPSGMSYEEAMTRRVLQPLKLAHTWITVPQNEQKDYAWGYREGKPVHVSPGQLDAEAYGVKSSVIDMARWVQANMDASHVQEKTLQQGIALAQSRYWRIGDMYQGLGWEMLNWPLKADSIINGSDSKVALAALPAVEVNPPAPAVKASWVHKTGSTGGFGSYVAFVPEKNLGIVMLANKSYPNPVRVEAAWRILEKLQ

Compound | Ceftazidime MIC with cyclic boronic acid ester derivative [1] | Ceftazidime MIC with cyclic boronic acid ester derivative [2] | Ceftazidime MIC with cyclic boronic acid ester derivative [3] | Ceftazidime MIC with cyclic boronic acid ester derivative [4] | Ceftazidime MIC with cyclic boronic acid ester derivative [5] | Ceftazidime MIC with cyclic boronic acid ester derivative [6] | Ceftazidime MIC with cyclic boronic acid ester derivative [7] | Ceftazidime MIC with cyclic boronic acid ester derivative [8] | Ceftazidime MIC with cyclic boronic acid ester derivative [9] | Ceftazidime MIC with cyclic boronic acid ester derivative [10] | IC50 [11] [µM] | IC50 [12] [nM] | IC50 [13, 29] [nM] | IC50 [13, 30] [nM] | IC50 [21] [µM] | IC50 [22] [nM] | IC50 [25] [µM] | IC50 [26] [µM] | IC50 [27] [µM] | IC50 [28] [µM] | further results
O=C(O)C[C@@H]1CC[C@H](NC(=O)Cc2ccccc2)B(O)O1 [Compound 6, 2-((3R,6S)-2-hydroxy-3-(2-phenylacetamido)-1,2-oxaborinan-6-yl)acetic acid] | Z (MIC of greater than 8 μg/mL) | Y (MIC of greater than 1 μg/mL to 8 μg/mL) | Y (MIC of greater than 1 μg/mL to 8 μg/mL) | Z (MIC of greater than 8 μg/mL) | Z (MIC of greater than 8 μg/mL) | X (MIC of 1 μg/mL or less) | Y (MIC of greater than 1 μg/mL to 8 μg/mL) | Y (MIC of greater than 1 μg/mL to 8 μg/mL) | Z (MIC of greater than 8 μg/mL) | X (MIC of 1 μg/mL or less) | < 1.72 | < 1720 | < 1720 | < 1720 | 0.344 to 3.44 | 344 to 3440 | > 3.44 | 0.344 to 3.44 | > 3.44 | 0.344 to 3.44 | IC50 [14]: < 1720 nM; IC50 [15]: > 6.87 µM; IC50 [16]: 1.72 to 6.87 µM; IC50 [17]: > 6.87 µM; MPC8 [18]: Y (MPC8 of 0.16 μg/mL to 1 μg/mL); MPC8 [19]: Z (MPC8 of greater than 1 μg/mL); IC50 [20]: 344 to 3440 nM; IC50 [23]: < 344 nM; IC50 [24]: < 344 nM
CC(C)(O/N=C(\C(=O)N[C@@H]1C(=O)N2C(C(=O)[O-])=C(C[n+]3ccccc3)CS[C@H]12)c1csc(N)n1)C(=O)O [Ceftazidime, reference compound] |  |  |  |  |  |  |  |  |  |  |  |  |  |  |  |  |  |  |  |  | MIC ([1]; Acinetobacter baumannii, read-out: Ceftazidime MIC Alone): > 8 µg/mL; MIC ([2]; Citrobacter freundii, read-out: Ceftazidime MIC Alone): > 8 µg/mL; MIC [3, 31]: > 8 µg/mL; MIC [4, 31]: > 8 µg/mL; MIC ([5]; Enterobacter cloacae, read-out: Ceftazidime MIC Alone): > 8 µg/mL; MIC [6, 32]: 1 to 8 µg/mL; MIC [7, 32]: > 8 µg/mL; MIC [8, 32]: > 8 µg/mL; MIC [9, 32]: > 8 µg/mL; MIC ([10]; Salmonella, read-out: Ceftazidime MIC Alone): > 8 µg/mL
O=C(O)C[C@@H]1CC[C@H](NC(=O)Cc2cccs2)B(O)O1 [Compound 5, 2-((3R,6S)-2-hydroxy-3-(2-(thiophen-2-yl)acetamido)-1,2-oxaborinan-6-yl)acetic acid] | Z (MIC of greater than 8 μg/mL) | Y (MIC of greater than 1 μg/mL to 8 μg/mL) | Y (MIC of greater than 1 μg/mL to 8 μg/mL) | Z (MIC of greater than 8 μg/mL) | Z (MIC of greater than 8 μg/mL) | X (MIC of 1 μg/mL or less) | Y (MIC of greater than 1 μg/mL to 8 μg/mL) | Y (MIC of greater than 1 μg/mL to 8 μg/mL) | Z (MIC of greater than 8 μg/mL) | Y (MIC of greater than 1 μg/mL to 8 μg/mL) | 1.68 to 6.73 | < 1680 | < 1680 | < 1680 | < 0.337 | < 337 | 0.337 to 3.37 | 0.337 to 3.37 | 0.337 to 3.37 | < 0.337 | IC50 [14]: < 1680 nM; IC50 [15]: > 6.73 µM; IC50 [16]: < 1.68 µM; IC50 [17]: > 6.73 µM; MPC8 [18]: Y (MPC8 of 0.16 μg/mL to 1 μg/mL); MPC8 [19]: Z (MPC8 of greater than 1 μg/mL); IC50 [20]: < 337 nM
CC(=O)N[C@H]1CCC(CC(=O)O)OB1O (stereo partly drawn) [Compound 3, 2-((3R)-3-acetamido-2-hydroxy-1,2-oxaborinan-6-yl)acetic acid] | Z (MIC of greater than 8 μg/mL) | Z (MIC of greater than 8 μg/mL) | Y (MIC of greater than 1 μg/mL to 8 μg/mL) | Z (MIC of greater than 8 μg/mL) | Z (MIC of greater than 8 μg/mL) | X (MIC of 1 μg/mL or less) | Z (MIC of greater than 8 μg/mL) | Z (MIC of greater than 8 μg/mL) | Z (MIC of greater than 8 μg/mL) | Z (MIC of greater than 8 μg/mL) | > 9.3 | < 2330 | < 2330 | 2330 to 9300 | > 4.65 | > 4650 | > 4.65 | > 4.65 | > 4.65 | > 4.65 | IC50 [14]: < 2330 nM; IC50 [15]: > 9.3 µM; IC50 [16]: > 9.3 µM; MPC8 [18]: X (MPC8 of less than 0.16 μg/mL); MPC8 [19]: Z (MPC8 of greater than 1 μg/mL); IC50 [23]: < 465 nM; IC50 [24]: 465 to 4650 nM
Cl.N[C@H]1CCC(CC(=O)O)OB1O (stereo partly drawn) [Compound 7, 2-((3R)-3-amino-2-hydroxy-1,2-oxaborinan-6-yl)acetic acid hydrochloride] |  |  | Z (MIC of greater than 8 μg/mL) |  |  |  | Z (MIC of greater than 8 μg/mL) |  |  |  |  |  |  |  | > 4.77 | 477 to 4770 | > 4.77 | > 4.77 | > 4.77 | > 4.77 | IC50 [23]: > 4770 nM; IC50 [24]: > 4770 nM
